From publication PMC6443876, “Molecular structure of a 5,10‐methylenetetrahydrofolate dehydrogenase from the silkworm Bombyx mori” (FEBS Open Bio, 2019) come the findings set out here.

Experiment [1] deals with T1, bmMTHFD (Bombyx mori, UniProt H9IYM1, S46A).
T1 construct: gene method; full-length ORF (906 bp, 301 residues, 32 733 Da), pET-15b (NdeI/BamHI); homodimer ~63 kDa; cDNA from larval fat body
The experiment is described as follows: endpoint absorbance at […] nm, Michaelis-Menten fit. The class given is biochemical. As to conditions: dehydrogenase activity, 20 mM sodium phosphate pH 6.5, 30 mM 2-mercaptoethanol, 28 °C.

Experiment [2] concerns the target T2, bmMTHFD (Bombyx mori, UniProt H9IYM1).
T2 construct: gene method; full-length ORF (906 bp, 301 residues, 32 733 Da), pET-15b (NdeI/BamHI); homodimer ~63 kDa; cDNA from larval fat body
T2 sequence (H9IYM1 1-301): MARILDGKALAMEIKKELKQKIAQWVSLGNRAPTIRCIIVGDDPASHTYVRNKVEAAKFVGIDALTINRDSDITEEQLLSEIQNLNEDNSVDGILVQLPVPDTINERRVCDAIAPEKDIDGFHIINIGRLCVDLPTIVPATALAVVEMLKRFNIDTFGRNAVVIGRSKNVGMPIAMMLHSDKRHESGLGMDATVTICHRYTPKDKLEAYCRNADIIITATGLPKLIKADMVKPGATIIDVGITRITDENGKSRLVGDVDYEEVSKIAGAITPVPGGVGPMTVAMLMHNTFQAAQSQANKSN
The experiment is described as follows: endpoint absorbance at […] nm, Michaelis-Menten fit. It is filed as biochemical. Conditions: dehydrogenase activity, 20 mM sodium phosphate pH 6.5, 30 mM 2-mercaptoethanol, 28 °C.

For experiment [3], the target named is T3, bmMTHFD (Bombyx mori, UniProt H9IYM1, Q97A).
T3 construct: gene method; full-length ORF (906 bp, 301 residues, 32 733 Da), pET-15b (NdeI/BamHI); homodimer ~63 kDa; cDNA from larval fat body
T3 sequence (H9IYM1 entry or part of it Q97A): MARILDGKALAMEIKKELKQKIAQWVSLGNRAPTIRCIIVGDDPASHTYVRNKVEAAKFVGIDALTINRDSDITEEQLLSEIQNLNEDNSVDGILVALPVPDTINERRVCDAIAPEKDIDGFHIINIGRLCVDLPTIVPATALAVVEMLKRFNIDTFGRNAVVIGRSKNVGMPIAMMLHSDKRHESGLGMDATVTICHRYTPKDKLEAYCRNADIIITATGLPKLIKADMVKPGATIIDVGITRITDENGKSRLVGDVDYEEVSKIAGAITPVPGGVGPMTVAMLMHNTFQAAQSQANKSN
Put plainly: endpoint absorbance at […] nm, Michaelis-Menten fit. It is filed as biochemical. As to conditions: dehydrogenase activity; NADP+ as cofactor; 20 mM sodium phosphate pH 6.5, 30 mM 2-mercaptoethanol, 28 °C.

For experiment [4], the target named is T4, bmMTHFD (Bombyx mori, UniProt H9IYM1, K53A).
T4 construct: gene method; full-length ORF (906 bp, 301 residues, 32 733 Da), pET-15b (NdeI/BamHI); homodimer ~63 kDa; cDNA from larval fat body
T4 sequence (H9IYM1 entry or part of it K53A): as the sequence (H9IYM1 entry or part of it Q97A) above, with K53A, A97Q counted along it
The experiment is described as follows: endpoint absorbance at […] nm, Michaelis-Menten fit. As to conditions: dehydrogenase activity, 20 mM sodium phosphate pH 6.5, 30 mM 2-mercaptoethanol, 28 °C. It is filed as biochemical.

For experiment [5], the target named is Bombyx mori 5,10-methylenetetrahydrofolate dehydrogenase (Bombyx mori). The experiment is described as follows: SEC; Superdex 200 analytical gel filtration, calibrated with protein standards (thyroglobulin, globulin, ovalbumin, myoglobin); bmMTHFD eluted at 205 mL, corresponding to 63 kDa.
Experiment [6] addresses T5, bmMTHFD (Bombyx mori, UniProt H9IYM1, D120A).
T5 construct: gene method; full-length ORF (906 bp, 301 residues, 32 733 Da), pET-15b (NdeI/BamHI); homodimer ~63 kDa; cDNA from larval fat body
The experiment is described as follows: decrease in absorption at […] nm, Michaelis-Menten fit. It is filed as biochemical. Conditions: cyclohydrolase activity; 0.1 M potassium maleate pH 7.4, 0.02 M 2-mercaptoethanol, 30 °C.

The target of experiment [7] is T4, bmMTHFD. Described as above. It is filed as biochemical. As to conditions: cyclohydrolase activity; 0.1 M potassium maleate pH 7.4, 0.02 M 2-mercaptoethanol, 30 °C.
In experiment [8] the target is T2, bmMTHFD. The description is as above. The class given is biochemical. Conditions: cyclohydrolase activity; 0.1 M potassium maleate pH 7.4, 0.02 M 2-mercaptoethanol, 30 °C.
The target in experiment [9] is T3, bmMTHFD. The description is as above. It is filed as biochemical. As to conditions: cyclohydrolase activity; 0.1 M potassium maleate pH 7.4, 0.02 M 2-mercaptoethanol, 30 °C.
Experiment [10] has as its target T5, bmMTHFD. The experiment is described as follows: endpoint absorbance at […] nm, Michaelis-Menten fit. Conditions: dehydrogenase activity; MTHF as co-substrate; 20 mM sodium phosphate pH 6.5, 30 mM 2-mercaptoethanol, 28 °C. It is filed as biochemical.

T5 sequence (H9IYM1 entry or part of it D120A): as the sequence (H9IYM1 entry or part of it Q97A) above, with A97Q, D120A counted along it
T1 sequence (H9IYM1 entry or part of it S46A): as the sequence (H9IYM1 entry or part of it Q97A) above, with S46A, A97Q counted along it

Regarding `Nc1nc2c(c(=O)[nH]1)N1CN(c3ccc(C(=O)N[C@@H](CCC(=O)O)C(=O)O)cc3)C[C@H]1CN2` [MTHF], the S46A in [1] (NADP+ as cofactor) is given as 0.19 (± 4.8 × 10^−3) mM. For the same molecule, the WT in [2] (NADP+ as cofactor) is listed as 0.51 (± 3.3 × 10^−2) mM. The Q97A in [3] is listed as 0.81 (± 2.8 × 10^−2) mM. Moreover, in [4] (NADP+ as cofactor), the K53A is given as 1.1 (± 1.8 × 10^−2) mM.

“Bombyx mori 5,10-methylenetetrahydrofolate dehydrogenase (enzyme)”: in experiment [5], the stoichiometry N (as a rule, a count of units in the complex or per binding partner) stood at 2.

As to `Nc1nc2c(c(=O)[nH]1)[N+]1=CN(c3ccc(C(=O)N[C@@H](CCC(=O)O)C(=O)O)cc3)C[C@H]1CN2` [5,10-methenyl-THF], the D120A in experiment [6] is reported as 0.23 (± 2.5 × 10^−2) mM. For the same molecule, in experiment [7], the K53A is 0.16 (± 1.5 × 10^−2) mM. Besides, in experiment [8], the WT is given as 0.13 (± 6.0 × 10^−3) mM. Besides, the Q97A in experiment [9] is reported as 0.019 (± 2.5 × 10^−3) mM.

In the case of `NC(=O)c1ccc[n+]([C@@H]2O[C@H](COP(=O)(O)OP(=O)(O)OC[C@H]3O[C@@H](n4cnc5c(N)ncnc54)[C@H](OP(=O)(O)O)[C@@H]3O)[C@@H](O)[C@H]2O)c1` [NADP^+], the S46A in experiment [1] (MTHF as co-substrate) is 0.98 (± 1.3 × 10^−1) mM. Also, the WT in experiment [2] (MTHF as co-substrate) is 0.22 (± 1.0 × 10^−2) mM. In experiment [10], the D120A is 2.0 (± 1.4 × 10^−1) mM. Also, in [4] (MTHF as co-substrate), the K53A was 0.62 (± 6.5 × 10^−2) mM.

`NC(=O)c1ccc[n+]([C@@H]2O[C@H](COP(=O)(O)OP(=O)(O)OC[C@H]3O[C@@H](n4cnc5c(N)ncnc54)[C@H](O)[C@@H]3O)[C@@H](O)[C@H]2O)c1` [NAD^+]: the WT in [2] (MTHF as co-substrate) is on record as 0.27 (± 2.0 × 10^−2) mM. Besides, in experiment [10], the D120A was 2.0 (± 9.0 × 10^−2) mM.
